Key:
Assay type in all cases: biochemical
human HPK1 (MAP4K1) = molecular target: T1, human HPK1 (MAP4K1) (Homo sapiens, UniProt Q92918); test: HPK1 inhibition assay (indirect ELISA); conditions: GST-HPK1 0.6 nM, 12 μM ATP; read-out: IC50 Range HPK1
T1 construct: human HPK1 (aa 1-346); purchased Invitrogen PV6355
T1 sequence (Q92918 1-346): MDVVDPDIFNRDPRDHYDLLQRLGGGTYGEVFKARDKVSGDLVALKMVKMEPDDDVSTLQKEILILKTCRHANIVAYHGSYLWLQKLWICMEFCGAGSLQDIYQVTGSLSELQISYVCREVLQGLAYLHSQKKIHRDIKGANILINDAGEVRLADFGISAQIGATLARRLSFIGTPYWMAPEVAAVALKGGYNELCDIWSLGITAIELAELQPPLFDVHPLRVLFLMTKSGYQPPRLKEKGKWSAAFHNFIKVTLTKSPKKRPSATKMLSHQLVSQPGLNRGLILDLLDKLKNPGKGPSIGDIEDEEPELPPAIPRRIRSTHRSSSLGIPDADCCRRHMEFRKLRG
Procedure: Active HPK1 (MAP4K1) was purchased as an N-terminal GST fusion of human HPK1 (aa 1-346) from Invitrogen (cat #PV6355). HPK1 activity was measured using an indirect ELISA detection system. GST-HPK1 (0.6 nM) was incubated in the presence of 12 μM ATP (Sigma cat #A7699), 5 mM MOPS (pH 7.2), 2.5 mM β-glycerol-phosphate, 5 mM MgCl2, 0.4 mM EDTA, 1 mM EGTA, 0.05 mM DTT, in a 96 well microtitre plate pre-coated with 0.5 μg/well bovine myelin basic protein (MBP) (Millipore, cat #13-110). The reaction was allowed to proceed for 30 min, followed by 5 washes of the plate with Wash Buffer (phosphate buffered saline supplemented with 0.2% Tween 20), and incubation for 30 min with a 1:3000 dilution of anti-phospho-threonine rabbit polyclonal antibody (Cell Signaling cat #9381). The plate was washed 5 times with wash buffer, incubated for 30 min in the presence of goat anti-rabbit horse radish peroxidase conjugate (BioRad cat #1721019, 1:3000 concentration), washed an additional 5 times with wash buffer, and incubated in the presence of TMB substrate (Sigma cat #T0440). The colorimetric reaction was allowed to continue for 5 min, followed by addition of stop solution (0.5 N H2SO4), and quantified by detection at 450 nm with a monochromatic plate reader (Molecular Devices M5).
Compound inhibition was determined at either a fixed concentration (10 μM) or at a variable inhibitor concentration (typically 50 μM to 0.1 μM in a 10 point dose response titration). Compounds were pre-incubated in the presence of enzyme for 15 min prior to addition of ATP and the activity remaining quantified using the above described activity assay. The % inhibition of a compound was determined using the following formula; % inhibition=100×(1−(experimental value−background value)/(high activity control−background value)). The IC50 value was determined using a non-linear 4 point logistic curve fit (XLfit4, IDBS) with the formula; (A+(B/(1+((x/C)^D)))), where A=background value, B=range, C=inflection point, D=curve fit parameter.

LCK = molecular target: T2, LCK (Homo sapiens, UniProt P06239); test: LCK inhibition, FRET based Z'-LYTE Kinase Assay; conditions: 25 nM LCK, 180 μM ATP; read-out: IC50 Range Lck
T2 construct: purchased Invitrogen P3043
T2 sequence (P06239 whole entry, species assumed): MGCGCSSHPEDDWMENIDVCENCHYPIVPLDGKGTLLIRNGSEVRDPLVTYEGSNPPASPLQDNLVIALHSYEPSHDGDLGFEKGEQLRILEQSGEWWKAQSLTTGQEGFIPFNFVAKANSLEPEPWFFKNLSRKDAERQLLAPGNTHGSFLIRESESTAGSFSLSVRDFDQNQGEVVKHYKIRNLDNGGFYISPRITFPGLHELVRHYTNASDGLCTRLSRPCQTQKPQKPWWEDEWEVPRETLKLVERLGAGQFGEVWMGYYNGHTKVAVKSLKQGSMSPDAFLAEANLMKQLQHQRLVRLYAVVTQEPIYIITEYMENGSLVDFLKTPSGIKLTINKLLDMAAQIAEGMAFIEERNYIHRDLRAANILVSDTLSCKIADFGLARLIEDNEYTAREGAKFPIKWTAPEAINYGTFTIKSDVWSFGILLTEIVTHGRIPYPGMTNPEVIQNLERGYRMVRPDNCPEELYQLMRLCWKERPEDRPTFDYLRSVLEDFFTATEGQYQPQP
Procedure: (§1) FLT3 and LCK compound inhibition were determined using FRET based Z′-LYTE Kinase Assay Kit with Tyrosine 2 peptide as the substrate (Invitrogen cat #PV3191). […] The % inhibition values were determined according to the manufacturer's directions and IC50 values were obtained using a non-linear 4 point logistic curve fit (XLfit4, IDBS).

FLT3 = molecular target: T3, FLT3 (Homo sapiens, UniProt P36888); test: FLT3 inhibition, FRET based Z'-LYTE Kinase Assay; conditions: 1 nM FLT3, 940 μM ATP; read-out: IC50 Range Flt3
T3 construct: purchased Invitrogen PV3182
T3 sequence (P36888 27-993): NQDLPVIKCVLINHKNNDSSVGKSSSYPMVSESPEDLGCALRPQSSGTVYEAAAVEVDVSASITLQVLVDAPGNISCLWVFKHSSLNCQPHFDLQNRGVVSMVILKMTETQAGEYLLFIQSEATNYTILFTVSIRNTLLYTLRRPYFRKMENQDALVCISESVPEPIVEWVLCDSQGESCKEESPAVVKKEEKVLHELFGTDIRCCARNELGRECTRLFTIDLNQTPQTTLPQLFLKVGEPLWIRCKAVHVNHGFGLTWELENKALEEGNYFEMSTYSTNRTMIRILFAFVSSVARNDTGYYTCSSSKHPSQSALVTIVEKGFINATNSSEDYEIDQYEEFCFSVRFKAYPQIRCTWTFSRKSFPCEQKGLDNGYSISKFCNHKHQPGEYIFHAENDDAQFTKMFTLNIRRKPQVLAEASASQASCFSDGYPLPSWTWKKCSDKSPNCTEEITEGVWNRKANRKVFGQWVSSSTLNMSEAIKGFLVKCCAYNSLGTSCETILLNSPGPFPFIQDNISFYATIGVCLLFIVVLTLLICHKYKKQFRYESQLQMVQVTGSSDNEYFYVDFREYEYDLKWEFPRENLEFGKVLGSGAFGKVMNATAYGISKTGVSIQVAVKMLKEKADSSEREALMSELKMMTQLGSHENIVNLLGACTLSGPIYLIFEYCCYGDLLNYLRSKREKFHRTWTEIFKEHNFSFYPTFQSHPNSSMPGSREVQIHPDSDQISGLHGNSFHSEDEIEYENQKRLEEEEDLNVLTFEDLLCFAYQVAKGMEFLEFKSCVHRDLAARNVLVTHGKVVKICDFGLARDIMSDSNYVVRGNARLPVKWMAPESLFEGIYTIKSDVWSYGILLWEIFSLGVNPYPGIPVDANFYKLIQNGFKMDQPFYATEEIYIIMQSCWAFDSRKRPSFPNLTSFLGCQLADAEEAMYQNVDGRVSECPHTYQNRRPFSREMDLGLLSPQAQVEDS
Procedure: as §1

Row | Compound | IC50 (human HPK1 (MAP4K1)) [nM] | IC50 (LCK) [nM] | IC50 (FLT3) [nM]
1 | C[C@@H]1CN(c2ccc3nc(-c4c(N)c5sccc5[nH]c4=O)[nH]c3c2)C[C@H](C)N1C [Example A33, 7-amino-6-(6-(3r,5s)-rel-3,4,5-trimethylpiperazin-1-yl)-1H-benzo[d]imidazol-2-yl)thieno[3,2-b]pyridin-5(4H)-one] | ≤ 50 | 50 to 500 | ≤ 50
2 | CN1CCN(c2ccc3nc(-c4c(NC5CCOCC5)c5sccc5[nH]c4=O)[nH]c3c2)CC1 [Example A35, 6-(6-(4-methylpiperazin-1-yl)-1H-benzo[d]imidazol-2-yl)-7-((tetrahydro-2H-pyran-4-yl)amino)thieno[3,2-b]pyridin-5(4H)-one] | ≤ 50 | ≤ 50 | ≤ 50
3 | CN1CCN(c2ccc3nc(-c4c(NCC5CCOCC5)c5sccc5[nH]c4=O)[nH]c3c2)CC1 [Example A38, 6-(6-(4-methylpiperazin-1-yl)-1H-benzo[d]imidazol-2-yl)-7-(((tetrahydro-2H-pyran-4-yl)methyl)amino)thieno[3,2-b]pyridin-5(4H)-one] | ≤ 50 | ≤ 50 | ≤ 50
4 | CN1CCN(c2ccc3nc(-c4c(NC5CCNCC5)c5sccc5[nH]c4=O)[nH]c3c2)CC1 [Example A39, 6-(6-(4-methylpiperazin-1-yl)-1H-benzo[d]imidazol-2-yl)-7-(piperidin-4-ylamino)thieno[3,2-b]pyridin-5(4H)-one] | ≤ 50 | ≤ 50 | ≤ 50
5 | CN1CCN(c2ccc3nc(-c4c(N[C@H]5CC[C@@H](O)CC5)c5sccc5[nH]c4=O)[nH]c3c2)CC1 [Example A40, 7-(((1S,4S)-4-hydroxycyclohexyl)amino)-6-(6-(4-methylpiperazin-1-yl)-1H-benzo[d]imidazol-2-yl)thieno-[3,2-b]pyridin-5(4H)-one] | ≤ 50 | ≤ 50 | ≤ 50
6 | CN1CCN(c2ccc3nc(-c4c(N[C@H]5CCC[C@@H]5O)c5sccc5[nH]c4=O)[nH]c3c2)CC1 [Example A42, 7-(((1S,2S)-2-hydroxycyclopentyl)amino)-6-(6-(4-methylpiperazin-1-yl)-1H-benzo[d]imidazol-2-yl)thieno[3,2-b]pyridin-5(4H)-one] | ≤ 50 | ≤ 50 | ≤ 50
7 | CN1CCN(c2ccc3nc(-c4c(N[C@H]5CCCC[C@H]5O)c5sccc5[nH]c4=O)[nH]c3c2)CC1 [Example A44, 7-(((1S,2R)-2-hydroxycyclohexyl)amino)-6-(6-(4-methylpiperazin-1-yl)-1H-benzo[d]imidazol-2-yl)thieno[3,2-b]pyridin-5(4H)-one] | ≤ 50 | ≤ 50 | ≤ 50
8 | CN1CCN(c2ccc3nc(-c4c(N[C@@H]5CCCC[C@@H]5O)c5sccc5[nH]c4=O)[nH]c3c2)CC1 [Example A46, 7-(((1R,2S)-2-hydroxycyclohexyl)amino)-6-(6-(4-methylpiperazin-1-yl)-1H-benzo[d]imidazol-2-yl)thieno[3,2-b]pyridin-5(4H)-one] | ≤ 50 | 50 to 500 | ≤ 50
9 | CN1CCN(c2ccc3nc(-c4c(N[C@H]5CCNC[C@@H]5F)c5ccsc5[nH]c4=O)[nH]c3c2)CC1 [Example A54, 4-(((3S,4S)-3-fluoropiperidin-4-yl)amino)-5-(6-(4-methylpiperazin-1-yl)-1H-benzo[d]imidazol-2-yl)thieno[2,3-b]pyridin-6(7H)-one] | ≤ 50 | 50 to 500 | ≤ 50
10 | Cc1cc2[nH]c(-c3c(N)c4ccsc4[nH]c3=O)nc2cc1N1CCN(C)CC1 [Example A61, 4-amino-5-(6-methyl-5-(4-methylpiperazin-1-yl)-1H-benzo[d]imidazol-2-yl)thieno[2,3-b]pyridin-6(7H)-one] | ≤ 50 | 50 to 500 | ≤ 50
11 | Nc1c(-c2nc3ccc(N4CCNCC4)cc3[nH]2)c(=O)[nH]c2sccc12 [Example A64, 4-amino-5-(6-(piperazin-1-yl)-1H-benzo[d]imidazol-2-yl)thieno[2,3-b]pyridin-6(7H)-one] | ≤ 50 | 50 to 500 | ≤ 50
12 | Nc1c(-c2nc3ccc(N4CCN(C5COC5)CC4)cc3[nH]2)c(=O)[nH]c2sccc12 [Example A65, 4-amino-5-(6-(4-(oxetan-3-yl)piperazin-1-yl)-1H-benzo[d]imidazol-2-yl)thieno[2,3-b]pyridin-6(7H)-one] | ≤ 50 | 50 to 500 | ≤ 50

Second part, the molecule after the results:

Row | IC50 (human HPK1 (MAP4K1)) [nM] | IC50 (LCK) [nM] | IC50 (FLT3) [nM] | Compound
13 | ≤ 50 | ≤ 50 | ≤ 50 | CN1CCN(c2ccc3nc(-c4c(N[C@H]5CCCC[C@@H]5O)c5sccc5[nH]c4=O)[nH]c3c2)CC1 [Example A41, 7-(((1S,2S)-2-hydroxycyclohexyl)amino)-6-(6-(4-methylpiperazin-1-yl)-1H-benzo[d]imidazol-2-yl)thieno[3,2-b]pyridin-5(4H)-one]
14 | ≤ 50 | ≤ 50 | ≤ 50 | CN1CCC(Nc2c(-c3nc4ccc(N5CCOCC5)cc4[nH]3)c(=O)[nH]c3ccsc23)CC1 [Example A45, 7((1-methylpiperidin-4-yl)amino)-6-(6-morpholino-1H-benzo[d]imidazol-2-yl)thieno[3,2-b]pyridin-5(4H)-one]
15 | ≤ 50 | ≤ 50 | ≤ 50 | C[C@@H]1CN(c2ccc3nc(-c4c(NC5CCOCC5)c5sccc5[nH]c4=O)[nH]c3c2)C[C@H](C)N1C [Example A48, 7-((tetrahydro-2H-pyran-4-yl)amino)-6-(6-(3r,5s)-rel-3,4,5-trimethylpiperazin-1-yl)-1H-benzo[d]imidazol-2-yl)thieno[3,2-b]pyridin-5(4H)-one]
16 | ≤ 50 | ≤ 50 | ≤ 50 | CN1CCN(c2ccc3nc(-c4c(NCc5cccnc5)c5sccc5[nH]c4=O)[nH]c3c2)CC1 [Example A52, 6-(6-(4-methylpiperazin-1-yl)-1H-benzo[d]imidazol-2-yl)-7-((pyridin-3-ylmethyl)amino)thieno[3,2-b]pyridin-5(4H)-one]
17 | ≤ 50 | ≤ 50 | ≤ 50 | CN1CCN(c2ccc3nc(-c4c(NCc5ccccn5)c5sccc5[nH]c4=O)[nH]c3c2)CC1 [Example A53, 6-(6-(4-methylpiperazin-1-yl)-1H-benzo[d]imidazol-2-yl)-7-((pyridin-2-ylmethyl)amino)-thieno[3,2-b]pyridin-5(4H)-one]

Source: US11059832B2, “HPK1 inhibitors and methods of using same” (University Health Network, priority 2015, dated 2021)
